Experimental data published in PubChem BioAssay (NCI).
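How tested: cells in 96-well plates exposed to compound for 48 hours at five concentrations. TGI: total growth inhibition.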

How the values were obtained:
Assay in all cases: NCI-60 cell line screen, 48 h
786-0 renal = system: 786-0 renal
A549 NSCLC = system: A549 NSCLC
ACHN renal = system: ACHN renal
BT-549 breast = system: BT-549 breast
CAKI-1 renal = system: CAKI-1 renal
COLO 205 colon = system: COLO 205 colon
EKVX NSCLC = system: EKVX NSCLC
HCC-2998 colon = system: HCC-2998 colon
HCT-116 colon = system: HCT-116 colon
HCT-15 colon = system: HCT-15 colon
HOP-62 NSCLC = system: HOP-62 NSCLC
HOP-92 NSCLC = system: HOP-92 NSCLC
HS 578T breast = system: HS 578T breast
HT29 colon = system: HT29 colon
IGROV1 ovarian = system: IGROV1 ovarian
K-562 leukemia = system: K-562 leukemia
KM12 colon = system: KM12 colon
LOX IMVI melanoma = system: LOX IMVI melanoma
M14 melanoma = system: M14 melanoma
MALME-3M melanoma = system: MALME-3M melanoma
MCF7 breast = system: MCF7 breast
MDA-MB-231 breast = system: MDA-MB-231 breast
MDA-MB-435 = system: MDA-MB-435
MDA-N = system: MDA-N
MOLT-4 leukemia = system: MOLT-4 leukemia
NCI-H226 lung = system: NCI-H226 lung
NCI-H23 lung = system: NCI-H23 lung
NCI-H460 lung = system: NCI-H460 lung
NCI-H522 lung = system: NCI-H522 lung
NCI/ADR-RES ovarian = system: NCI/ADR-RES ovarian
OVCAR-4 ovarian = system: OVCAR-4 ovarian
OVCAR-5 ovarian = system: OVCAR-5 ovarian
OVCAR-8 ovarian = system: OVCAR-8 ovarian
PC-3 prostate = system: PC-3 prostate
RPMI-8226 leukemia = system: RPMI-8226 leukemia
RXF 393 renal = system: RXF 393 renal
SF-268 CNS = system: SF-268 CNS
SF-295 CNS = system: SF-295 CNS
SF-539 CNS = system: SF-539 CNS
SK-MEL-2 melanoma = system: SK-MEL-2 melanoma
SK-MEL-28 melanoma = system: SK-MEL-28 melanoma
SK-MEL-5 melanoma = system: SK-MEL-5 melanoma
SK-OV-3 ovarian = system: SK-OV-3 ovarian
SN12C renal = system: SN12C renal
SNB-19 CNS = system: SNB-19 CNS
SNB-75 CNS = system: SNB-75 CNS
SR leukemia = system: SR leukemia
SW-620 colon = system: SW-620 colon
T-47D breast = system: T-47D breast
TK-10 renal = system: TK-10 renal
U251 CNS = system: U251 CNS
UACC-257 melanoma = system: UACC-257 melanoma
UACC-62 melanoma = system: UACC-62 melanoma
UO-31 renal = system: UO-31 renal

With `C=CCOC(=O)C[C@H](NC(=O)[C@H](Cc1ccc(O)cc1)NCC(F)(F)F)C(=O)OCC=C` the TGI (786-0 renal) was greater than 100 µM, the TGI (A549 NSCLC) was greater than 100 µM and the TGI (ACHN renal) was greater than 100 µM. The TGI (BT-549 breast) was greater than 100 µM, the TGI (CAKI-1 renal) was greater than 100 µM and the TGI (COLO 205 colon) was greater than 100 µM. For the same molecule, the TGI (EKVX NSCLC) was greater than 100 µM, the TGI (HCC-2998 colon) was greater than 100 µM and the TGI (HCT-116 colon) was greater than 100 µM. For the same molecule, the TGI (HCT-15 colon) was greater than 100 µM, the TGI (HOP-62 NSCLC) was greater than 100 µM and the TGI (HOP-92 NSCLC) was greater than 100 µM. For the same molecule, the TGI (HS 578T breast) was greater than 100 µM, the TGI (HT29 colon) was greater than 100 µM and the TGI (IGROV1 ovarian) was greater than 100 µM. It also gave a TGI (K-562 leukemia) greater than 100 µM, a TGI (KM12 colon) greater than 100 µM and a TGI (LOX IMVI melanoma) greater than 100 µM. For the same molecule, the TGI (M14 melanoma) was greater than 100 µM, the TGI (MALME-3M melanoma) was 52.7 µM and the TGI (MCF7 breast) was greater than 100 µM. The TGI (MDA-MB-231 breast) was greater than 100 µM, the TGI (MDA-MB-435) was greater than 100 µM and the TGI (MDA-N) was greater than 100 µM. For the same molecule, the TGI (MOLT-4 leukemia) was 60.1 µM, the TGI (NCI-H226 lung) was greater than 100 µM and the TGI (NCI-H23 lung) was greater than 100 µM. The TGI (NCI-H460 lung) was greater than 100 µM, the TGI (NCI-H522 lung) was 68.9 µM and the TGI (NCI/ADR-RES ovarian) was greater than 100 µM. For the same molecule, the TGI (OVCAR-4 ovarian) was greater than 100 µM, the TGI (OVCAR-5 ovarian) was greater than 100 µM and the TGI (OVCAR-8 ovarian) was greater than 100 µM. The TGI (PC-3 prostate) was greater than 100 µM, the TGI (RPMI-8226 leukemia) was greater than 100 µM and the TGI (RXF 393 renal) was greater than 100 µM. It also gave a TGI (SF-268 CNS) greater than 100 µM, a TGI (SF-295 CNS) greater than 100 µM and a TGI (SF-539 CNS) greater than 100 µM. It also gave a TGI (SK-MEL-2 melanoma) of 46.1 µM, a TGI (SK-MEL-28 melanoma) of 44.5 µM and a TGI (SK-MEL-5 melanoma) of 97.5 µM. The TGI (SK-OV-3 ovarian) was greater than 100 µM, the TGI (SN12C renal) was greater than 100 µM and the TGI (SNB-19 CNS) was greater than 100 µM. For the same molecule, the TGI (SNB-75 CNS) was greater than 100 µM, the TGI (SR leukemia) was greater than 100 µM and the TGI (SW-620 colon) was greater than 100 µM. It also gave a TGI (T-47D breast) of 58.1 µM, a TGI (TK-10 renal) greater than 100 µM and a TGI (U251 CNS) greater than 100 µM. For the same molecule, the TGI (UACC-257 melanoma) was 44.2 µM, the TGI (UACC-62 melanoma) was greater than 100 µM and the TGI (UO-31 renal) was greater than 100 µM.
